Values of other authors in US20220296560A1, “PHARMACEUTICAL COMPOSITION FOR ORAL ADMINISTRATION IN POWDER FORMULATION CONTAINING ANTIVIRAL AGENT” (DAE HWA PHARMA. CO., LTD., priority 2019, published 2022).
Where two headings read alike, the source gives them in different places.

Conditions: in vivo

CC(=O)N[C@H]1[C@H]([C@H](O)[C@H](O)CO)OC(C(=O)O)=C[C@@H]1N=C(N)N [zanamivir, 5-(acetylamino)-4-{[amino(imino)methyl]amino}-2,6-anhydro-3,4,5-trideoxy-D-glycero-D-galacto-non-2-enonic acid]
bioavailability (inhaled or intranasal): 4-17% | bioavailability (po): about 2%
